Measurements: PMC10350920, “Development of a 2,4-Diaminothiazole Series for the Treatment of Human African Trypanosomiasis Highlights the Importance of Static–Cidal Screening of Analogues” (Journal of Medicinal Chemistry, 2023)

Tests used:
[1] = Mammalian cell counter screen (MRC-5); format: cell-based, human; conditions: human, MRC-5 fibroblasts; mean values; number of replicates in parentheses
Method: (§1) Drug sensitivity assays with BSF T. b. brucei “single marker” S427 and human MRC-5 fibroblasts were conducted as previously described.[43]

[2] = Mouse liver microsomal intrinsic clearance; format: in vitro ADME
Method: Test compounds (0.5 μM) were incubated with female CD1 mouse liver microsomes (Xenotech LLC; 0.5 mg mL^–1 50 mM potassium phosphate buffer, pH 7.4), and the reaction started with the addition of excess NADPH (8 mg mL^–1 50 mM potassium phosphate buffer, pH 7.4). Immediately, at 0 min, and then at 3, 6, 9, 15, and 30 min, an aliquot (50 μL) of the incubation mixture was removed and mixed with acetonitrile (100 μL) to stop the reaction. The internal standard was added to all samples, the samples were centrifuged to sediment the precipitated protein, and the plates were then sealed prior to UPLC–MS/MS analysis using a Quattro Premier XE (Waters Corporation, USA). XLfit (IDBS, UK) was used to calculate the exponential decay and consequently the rate constant (k) from the ratio of the peak area of the test compound to the internal standard at each time point. The rate of intrinsic clearance (CLint) of each test compound was then calculated using the following calculation [drawing 3] where V (mL mg^–1 protein) is the incubation volume mg^–1 protein added and the microsomal protein yield is taken as 52.5 mg protein g^–1 liver. Verapamil (0.5 μM) was used as a positive control to confirm acceptable assay performance.

[3] = Equilibrium dialysis, free fraction in plasma; format: in vitro ADME, mouse; conditions: matrix not given; for fraction unbound at 5 h, 10 μg mL^–1: CD1, mouse, plasma, pH 7.4, read-out: Fu (free fraction)
Method: In brief, a 96-well equilibrium dialysis apparatus was used to determine the free fraction in plasma and the brain (HT Dialysis LLC, Gales Ferry, CT). Isotonic buffer was prepared using 8.69 g of Na2HPO4, 1.9 g of KH2PO4, and 4.11 g of NaCl dissolved in 1 L of Milli-Q water, and the pH was adjusted to 7.4. Artificial CSF was prepared using 3.652 g of NaCl, 93.2 mg of KCl, 119.96 mg of MgCl2, 92.61 mg of CaCl2, and 268 mg of Na2HPO4 heptahydrate dissolved in 0.5 L of water, and the pH was adjusted to 7.4. Membranes [12–14 (plasma) or 6–9 (brain) kDA cutoff] were conditioned in deionized water for 60 min, followed by conditioning in 80:20 deionized water/ethanol for 20 min, and then rinsed in isotonic buffer (plasma) or […] (brain) before use. Female CD1 mouse plasma was defrosted and centrifuged for 10 min at 3000 rpm (Allegra X12-R, Beckman Coulter, USA). The control mouse brain was homogenized in two volumes of artificial CSF in a Covaris S2 acoustic homogenizer. Plasma or brain homogenate was spiked with the test compound (10 μg mL^–1), and 150 μL aliquots (n = 3 replicate determinations) were loaded into the 96-well equilibrium dialysis plate. Dialysis versus 150 μL of isotonic buffer (plasma) or artificial CSF (brain) was carried out for 5 h in a temperature-controlled incubator at 37 °C (Barworld Scientific Ltd, UK) using an orbital microplate shaker at 125 rpm (Barworld Scientific Ltd, UK). At the end of the incubation period, aliquots of plasma/homogenized brain or buffer were transferred to a clean 96-well plate, and the composition in each well was balanced with control fluid, such that the volume of buffer to the matrix was the same. Sample extraction was performed by the addition of 400 μL of acetonitrile containing an appropriate internal standard. Samples were allowed to mix for 1 min and then centrifuged at 3000 rpm in 96-well blocks for 10 min (Allegra X12-R, Beckman Coulter, USA). All samples were analyzed by means of UPLC/MS/MS on a Quattro Premier XE or Micro TQs mass spectrometer (Waters Corporation, USA). The unbound fraction was determined as the ratio of the peak area in the buffer to that in the matrix.

[4] = Human microsomal intrinsic clearance; format: in vitro ADME; conditions: second value of mouse/human cell
[5] = system: BSF T. b. brucei “single marker” S427; test: Drug sensitivity assay with bloodstream-form T. brucei; format: cell-based; conditions: Trypanosoma brucei; mean values; number of replicates in parentheses
Method: as §1

human MRC-5 fibroblasts = test: Mammalian cell counter screen (MRC-5); format: cell-based; conditions: for SI: selectivity index (EC50 MRC5/EC50 T. brucei)
Method: as §1

[6] = Kinetic aqueous solubility (laser nephelometry); format: physicochemical; conditions: Milli-Q water with 2.5% DMSO
Method: The kinetic aqueous solubility of the test compounds was measured using laser nephelometry. Compounds were subject to serial dilution from 10 to 0.5 mM in DMSO. An aliquot was then mixed with Milli-Q water to obtain an aqueous dilution plate with a final concentration range of 13–250 μM, with a final DMSO concentration of 2.5%. Triplicate aliquots were transferred to a flat-bottomed polystyrene plate which was immediately read on the NEPHELOstar (BMG Lab Technologies). The amount of laser scatter caused by insoluble particulates (relative nephelometry units, RNUs) was plotted against compound concentration using a segmental regression fit, with the point of inflection being quoted as the compound’s aqueous solubility (μM).

T. brucei wild-type = test: Drug sensitivity, wild-type parental line; format: cell-based, T. b. brucei; conditions: Trypanosoma brucei; weighted mean of ≥3 independent experiments
Method: (§2) Drug sensitivity assays were carried out with BSF T. b. brucei “single marker” S427 or BSF T. b. brucei, Lister 427, MiTat 1.2, clone 221a 2T1 cells,[45] cells grown at 37 °C with 5% CO2 in an HMI-9T medium[46] as previously described.[47] 2T1 cells were initially maintained with 1 μg mL^–1 puromycin and 1 μg mL^–1 phleomycin prior to transfection or 2.5 μg mL^–1 hygromycin and 1 μg mL^–1 phleomycin after transfection. Induction of overexpression was achieved by the addition of 1 μg mL^–1 tetracycline to the culture medium.
(§3) Compound-resistant cell lines were generated by subculturing a clone of T. brucei in the continuous presence of 38. Starting at sublethal concentrations, drug concentrations in two independent cultures were increased in a stepwise manner, usually 2-fold. When parasites were able to survive and grow in concentrations of drugs equivalent to more than 10 times the established EC50 value, the resulting cell lines were cloned by limiting dilution in the presence of the compound. Two clones (RES I-II) were selected for further biological study. A standard alkaline lysis protocol was used to isolate genomic DNA from compound-resistant bloodstream T. brucei parasites (∼1 × 10^8). Whole genome sequencing was performed using a DNB-seq next-generation sequencing platform (BGI, Hong Kong). Sequencing reads (150 bp) were aligned to the T. brucei TREU927 genome (v39; tritrypDB) using Bowtie2[48] and Samtools[49] software. […] Samtools and BCFtools[52] (mpileup) were used to call SNP and indels compared with the wild-type starter clone, where the overall quality score (QUAL) was >100. Artemis[50] was used to analyze chromosome and gene copy number variation, as well as visualization of SNPs.

T. brucei RES II = test: Drug sensitivity, compound 38-resistant clone RES II; format: cell-based, T. b. brucei
Method: as §2, §3

T. brucei RES I = test: Drug sensitivity, compound 38-resistant clone RES I; format: cell-based, T. b. brucei
Method: as §2, §3

[7] = Mouse brain penetration (brain:blood ratio); format: in vivo, female NMRI mice; conditions: female, NMRI, mouse, brain and blood, 10 mg kg^–1; mice, bolus of test compound, total compound; read-out: brain/blood (B/B) ratio
Method: Medicines for HAT are required to treat both acute and chronic infections, where parasites pass through the blood/brain barrier and enter the CNS. With this in mind, mice were dosed with an […] bolus of our test compounds, and compound concentrations in blood and brain were determined by UPLC–MS/MS. […] The brain fraction unbound was 0.0063 for 16 and 0.0313 for 38. Brain penetration of the series as a whole tracked with the generally accepted rules of CNS penetration, with a lower topological PSA (TPSA) and molecular weight compounds having an increased B/B ratio (Table S2 and Figure S1). However, the link between log P and the B/B ratio was slightly less convincing. […] This difference could be explained by 18 being a substrate for the P-glycoprotein efflux pump.
Each compound was dosed as an IV bolus at 10 mg kg^–1 dissolved in 15% solutol/Milli-Q (dose volume 10 mL kg^–1) to female NMRI mice (n = 3). At 30 min following the IV bolus of the test compound, mice (n = 3/time point) were placed under terminal anesthesia with isoflurane. A blood sample was taken by cardiac puncture and added to two volumes of distilled water, and the brain was removed. […] For each mouse at each time point, the concentration in the brain (ng g^–1) was divided by the concentration in blood (ng mL^–1) to give a brain: blood ratio.

[8] = Rat microsomal intrinsic clearance; format: in vitro ADME; conditions: second value of mouse/rat cell
[9] = relative to the parental wild-type, in brackets

SMILES | EC50 [1] | CLint (mouse) [2] | CLint (human) [4] | EC50 [5] | SI (human MRC-5 fibroblasts) | other results
Nc1nc(NC2CCCCC2)sc1C(=O)c1ccc(OC(F)F)cc1 [Compound 26, (4-Amino-2-(cyclohexylamino)thiazol-5-yl)(4-(difluoromethoxy)phenyl)methanone] | 22 µM | 2.9 mL·min/g | 0.8 mL·min/g | 0.06 µM | – | Fu (free fraction) [3]: low
CC(OCC(=O)c1sc(Nc2ccn(C)n2)nc1N)C(F)(F)F (stereo not drawn) [Compound 55, 1-(4-Amino-2-((1-methyl-1H-pyrazol-3-yl)amino)thiazol-5-yl)-2-((1,1,1-trifluoropropan-2-yl)oxy)ethan-1-one] | 9.4 µM | 10.8 mL·min/g | – | 0.19 µM | 50 | solubility [6]: > 0.1 mg/mL
Nc1nc(N[C@H]2CC[C@H](O)CC2)sc1C(=O)c1c(F)cccc1F [Compound 16A] | – | – | – | 0.36 µM | – | fraction unbound at 5 h, 10 μg mL^–1 [3]: 0.39
Nc1nc(NC2CCCC(O)C2)sc1C(=O)c1c(F)cccc1F (stereo not drawn) [Compound 16B] | – | 1.8 mL·min/g | – | 0.948 µM | – | fraction unbound at 5 h, 10 μg mL^–1 [3]: 0.22
O=C1Nc2ccc3ncsc3c2/C1=C/Nc1ccc(S(=O)(=O)Nc2ccccn2)cc1 [GW8510] | – | – | – | – | – | EC50 (T. brucei wild-type): 0.12 ± 0.008 µM; EC50 (T. brucei RES II; Trypanosoma brucei, read-out: EC50, RES II): 0.11 ± 0.004 µM; fold resistance, RES II (T. brucei RES II; [9]): 1; EC50 (T. brucei RES I; Trypanosoma brucei, read-out: EC50, RES I): 0.065 ± 0.004 µM; fold resistance, RES I (T. brucei RES I; [9]): 1
Nc1nc(Nc2ccccc2)sc1C(=O)c1ccccc1 [Compound 34, (4-Amino-2-(phenylamino)thiazol-5-yl)(phenyl)methanone] | 11 µM | 12 mL·min/g | < 0.5 mL·min/g | 0.16 µM | 69 | selectivity over MRC-5 cell line (human MRC-5 fibroblasts): ~100 fold
CC(C)CC(=O)c1sc(Nc2ccc(F)c(F)c2)nc1N [Compound 37, 1-(4-Amino-2-((3,4-difluorophenyl)amino)thiazol-5-yl)-3-methylbutan-1-one] | > 50 µM | 5.9 mL·min/g | 3.2 mL·min/g | 0.2 µM | >250 | Kp at 30 min [7]: 4.7
CC(OCC(=O)c1sc(Nc2ccc(Cl)cc2)nc1N)C(F)(F)F (stereo not drawn) [Compound 51, 1-(4-Amino-2-((4-chlorophenyl)amino)thiazol-5-yl)-2-((1,1,1-trifluoropropan-2-yl)oxy)ethanone] | > 50 µM | 5.3 mL·min/g | – | 0.008 µM | 6250 | CLint (rat) [8]: 1.7 mL·min/g; Kp at 30 min [7]: 0.9
CC(OCC(=O)c1sc(Nc2ccc(C(F)(F)F)nc2)nc1N)C(F)(F)F (stereo not drawn) [Compound 56, 1-(4-Amino-2-((6-(trifluoromethyl)pyridine-3-yl)amino)thiazol-5-yl)-2-((1,1,1-trifluoropropan-2-yl)oxy)ethanone] | > 50 µM | – | – | 0.52 µM | 96 | solubility [6]: > 0.1 mg/mL
